Experimental data from patent US9149440B2, “Nanoparticles for drug-delivery” (UNIVERSITY OF SOUTH FLORIDA, priority 2003, dated 2015).
Blank lines part the entries; values can stand above or below the compound they belong to.

Assays:
Water solubility = type: physicochemical
C. glabrata (ATCC 15126) = test: Antifungal agar well diffusion, zones of inhibition; type: cell-based; details: Nakaseomyces glabratus, ATCC15126; 50 μg, 48 hours; read-out: zone of growth inhibition, standard
C. albicans = test: as above; type: cell-based; details: Candida albicans; 50 μg, 48 hours; read-out: zone of growth inhibition, standard
Method: (§1) Antifungal testing of these nanoparticles was performed by Kirby-Bauer disc diffusion on agar plates against eight genera of fungi.

C. utilis (ATCC 29950) = test: as above; type: cell-based; details: Williopsis jadinii, ATCC29950; 50 μg, 48 hours; read-out: zone of growth inhibition, standard
Method: as §1

[1] = tested on: C. lusitaniae (ATCC 34449); test: as above; type: cell-based; details: Clavispora lusitaniae, ATCC34449; 50 μg, 48 hours; read-out: zone of growth inhibition, standard
Method: as §1

C. tropicalis = test: as above; type: cell-based; details: Candida tropicalis; 50 μg, 48 hours; read-out: zone of growth inhibition, standard
[2] = tested on: C. parapsilosis (ATCC 22019); test: as above; type: cell-based; details: Lodderomyces parapsilosis, ATCC22019; 50 μg, 48 hours; read-out: zone of growth inhibition, standard
C. krusei (ATCC 14243) = test: as above; type: cell-based; details: Pichia kudriavzevii, ATCC14243; 50 μg, 48 hours; read-out: zone of growth inhibition, standard
C. kefyr = test: as above; type: cell-based; details: Kluyveromyces marxianus; 50 μg, 48 hours; read-out: zone of growth inhibition, standard

melting point: 66 to 68 °C
SMILES: C=CC(=O)OC(C)OC(=O)c1c2ccccc2cc2ccccc12 (stereo not shown)

water solubility (Water solubility): water-insoluble
SMILES: C=CC(=O)C1C(=O)N(SC)C1c1ccccc1Cl (racemic) [N-methylthiolated β-lactam, 3-acryloyl-N-methylthio-4-(2-chlorophenyl)-2-azetidinone]

SMILES: Clc1ccccc1C(c1ccccc1)(c1ccccc1)n1ccnc1 [clotrimazole]
zone of inhibition at 50 µg/disc (C. glabrata (ATCC 15126)): 14 mm | zone of inhibition at 50 µg/disc (C. albicans): 20 mm | zone of inhibition at 50 µg/disc (C. utilis (ATCC 29950)): 24 mm | zone of inhibition at 50 µg/disc [1]: 25 mm | zone of inhibition at 50 µg/disc (C. tropicalis): 20 mm | zone of inhibition at 50 µg/disc [2]: 32 mm | zone of inhibition at 50 µg/disc (C. krusei (ATCC 14243)): 27 mm | zone of inhibition at 50 µg/disc (C. kefyr): 37 mm
